Results taken from patent US20150086647A1, “PEROXYGEN RELEASE COMPOSITIONS AND METHOD FOR PRODUCING THEM” (CREACHEM SA, priority 2012, published 2015).

Experiment: Stability in the presence of ferric EDTA (Fe-catalyzed hydrogen peroxide decomposition)
Format: physicochemical
Conditions: with ferric EDTA; for hydrogen peroxide concentration: diluted with tap water
Method: Approximately 250 μL of a 3% solution of ferric EDTA (ethylenediaminetetracetic acid), at pH 7, was added to 3.5 grams of the composition obtained from EXAMPLE I.
The same amount of ferric EDTA was added to 3.5 grams of a 27.5% wt H2O2 solution. Both the 3.5 grams of the composition according to EXAMPLE I and the 3.5 grams H2O2 solution, both containing the ferric EDTA, were diluted with a quantity of tap water until the water contained 50 ppm of H2O2, determined with colorimetric reagent strips (Merck).
The following table indicates the evolution of the hydrogen peroxide concentration (ppm) in both samples.

H2O2 [Diluted H2O2]
gas bubbles indicating Fe-catalyzed hydrogen peroxide decomposition (diluted to 50 ppm H2O2): appeared almost instantly | hydrogen peroxide concentration (0 h): 50 ppm | hydrogen peroxide concentration (4 h): 20 ppm | hydrogen peroxide concentration (18 h): 15 ppm
